Data on 10 molecules can be found in patent US4954509A, “Isoquinoline derivatives and their use as analgesics” (Dr. Lo. Zambeletti S.p.A., priority 1988, dated 1990).

Assay [1] deals with mice. The assay is described as follows: tail-flick test in mice. It counts as in vivo, mouse (male Charles River, Swiss Strain). Conditions: subcutaneous, calculated as the free base, 30 min pretreatment; for ED50: Mus musculus, sc, 0.5 h; for MOUSE TAIL-FLICK ED50: 30 min. On the procedure:
(B) Tail-flick test in mice
The methodology employed is based on that described by D'Amour and Smith, J. Pharmacol. Exp. Ther. 72, 74/1941.
Male Charles River mice (Swiss Strain), 22-34g body weight were used. Animals were allowed food and water ad libitum and were randomized into groups of 10 prior to experimentation.
Test compounds were dissolved in either distilled water or distilled water plus 0.1 M AMS and administered by the subcutaneous route in a final volume of 10 ml/Kg. Control animals received 10 ml/kg of the appropriate vehicle alone. Following a pretreatment period of 30 min., the mice were again placed under the heat source and the reaction tine re-determined.
Percentage quantal protection was determined as the number of mice in which the reaction time was doubled compared to pretreatment values, expressed as a percentage of the total number of mice in the group.

The subject of assay [2] is mice. The assay is described as follows: p-phenylquinone-induced abdominal writhing test in mice. It counts as in vivo, mouse (male Charles River, Swiss Strain). The settings on record: Mus musculus, sc, 20 min; subcutaneous; calculated as the free base; 20 min pretreatment, p-phenylquinone 2 mg/Kg i.p. The method, then: (A) P-phenylquinone-induced abdominal writhing test in mice
The methodology employed is based on that described by Sigmund et al, Proc. Soc. Exptl. Biol. 95, 729/1957, modified by Milne and Twomey, Agents and Actions, 10, 31/1980.
Male Charles River mice (Swiss Strain), 25-36g body weight, were used. Animals were allowed food and water ad libitum and were randomized into groups of 10 prior to experimentation. Test compounds were dissolved in either distilled water or distilled water plus 0.1 M AMS, and administered by the subcutaneous route in a final volume of 10 ml/Kg. Control animals received 10 ml/Kg of the appropriate vehicle alone. Following a pretreatment period of 20 min., mice were injected intraperitoneally with p-phenylquinone, 2 mg/Kg at 37° C. in a final volume of […]. […] During this period the number of abdominal writhing responses per animal were recorded where writhing consists of an intermittent contraction of the abdomen associated with hind leg extension.
The degree of antinociceptive protection afforded by the test compound was determined as the mean number of writhing responses observed in the treated group (T) expressed as a percentage of the mean number of writhing responses in the control group (C) according to the following formula:
[1-(T/C]×100%=% graded protection

For assay [3], the target named is T1, MU opiate receptor (Cavia porcellus, UniProt A0ACM8Q262).
T1 construct: 3H-DAGO displacement
In words: opiate receptors binding, MU (3H-DAGO, guinea pig brain homogenate). The method, then: Radio receptor binding to μ and K sites is performed on fresh guinea pig brain homogenate prepared according to Kosterlitz.
Whole brain without cerebellum is homogenized in 50 mM, Tris-buffer (pH 7.4 at 0° C.) and centrifuged at 49,000×g×10 min.
The pellet is then resuspended in the same buffer, incubated at 37° C. for 45 min. and centrifuged again. 1.9ml of the final homogenate (1:100 in Tris-pH 7.4, 0° C.) is used for the binding assay.
The filters are then dryed, solubilized in Filtercount and the radioactivity monitored. Non specific binding
is determined in the presence of 10-6M Naloxone.

[4] abbreviates: fresh guinea pig brain homogenate, 25° C., 40 min, read-out: OPIATE RECEPTORS BINDING MU Ki.

SMILES strings stand for the structures. Where a name gives a salt, the structure may show the parent alone. Read-outs that look alike come from different tables or passages of the source.

T1 sequence (A0ACM8Q262 1-400): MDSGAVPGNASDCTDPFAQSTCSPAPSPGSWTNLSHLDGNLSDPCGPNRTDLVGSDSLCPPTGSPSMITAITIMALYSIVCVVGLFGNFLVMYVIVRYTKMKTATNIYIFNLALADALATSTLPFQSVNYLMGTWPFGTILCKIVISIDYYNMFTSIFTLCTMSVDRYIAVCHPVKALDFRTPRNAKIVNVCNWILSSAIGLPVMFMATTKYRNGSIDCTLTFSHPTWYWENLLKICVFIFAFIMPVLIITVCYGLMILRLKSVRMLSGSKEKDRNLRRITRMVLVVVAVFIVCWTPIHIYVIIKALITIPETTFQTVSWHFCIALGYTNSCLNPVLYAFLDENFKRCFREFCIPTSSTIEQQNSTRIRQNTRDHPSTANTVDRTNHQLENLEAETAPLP

The term ED50 denotes the midpoint of the dose-response relation. For orientation: Ki means the dissociation constant of the complex between target and ligand, obtained from inhibition or displacement. For the molecule `CC1CN(C(=O)Cc2ccc(Cl)c(Cl)c2)C(CN2CCCC2)c2ccccc21` (single isomer, unassigned) [Example 44, (-)-1-(pyrrolidin-1-yl)methyl-2-(3,4-dichlorophenyl)acetyl-4-methyl-1,2,3,4-tetrahydroisoquinoline D(-) tartrate], the 50% effective dose (ED50) was 0.025 mg/kg in assay [1] and 0.013 mg/kg in assay [2]. The inhibitory constant (Ki) in assay [3] (read-out: OPIATE RECEPTORS BINDING MU Ki, fresh guinea pig brain homogenate, 25° C., 40 min) came out at 0.0565 µM.

Turning to `O=C(Cc1ccc(Cl)c(Cl)c1)N1CCc2c(O)cccc2C1CN1CCCC1` (single isomer, unassigned; (-)) [Example 54, (-)-1-(pyrrolidin-1-yl)methyl-2-(3,4-dichlorophenyl)acetyl-5-hydroxy-1,2,3,4-tetrahydroisoquinoline hydrochloride], the 50% effective dose (ED50) in assay [1] was 0.006 mg/kg; in assay [2], 0.0022 mg/kg.

For the molecule `CC1c2ccccc2C(CN2CCCC2)N(C(=O)Cc2ccc(Cl)c(Cl)c2)C1C` (single isomer, unassigned; diastereoisomer b) [Example 46, 1-(pyrrolidin-1-yl)methyl-2-(3,4-dichlorophenyl)acetyl-3,4-dimethyl-1,2,3,4-tetrahydroisoquinoline diastereoisomer B], the “MOUSE TAIL-FLICK ED50” value in assay [1] is recorded as 0.048 mg/kg. For the same molecule, the median effective dose (ED50) in assay [2] was 0.011 mg/kg.

For `CC1c2ccccc2C(CN2CCCCC2)N(C(=O)Cc2ccc(Cl)c(Cl)c2)C1C` (single isomer, unassigned; diastereoisomer b) [Example 49, 1-(piperidin-1-yl)methyl-2-(3,4-dichlorophenyl)acetyl-3,4-dimethyl-1,2,3,4-tetrahydroisoquinoline diastereoisomer B.], the ED50 is 0.077 mg/kg in assay [1] and 0.038 mg/kg in assay [2].

Turning to `O=C(Cc1ccc(Cl)c(Cl)c1)N1CC(c2ccccc2)c2ccccc2C1CN1CCCC1` (single isomer, unassigned; diastereoisomer b) [Example 50, 1-(pyrrolidin-1-yl)methyl-2-(3,4-dichlorophenyl)acetyl-4-phenyl-1,2,3,4-tetrahydroisoquinoline hydrochloride monohydrate diastereoisomer B], in assay [1], the ED50 is 20 mg/kg.

Regarding `CC1c2ccccc2C(CN2CCCC2)N(C(=O)Cc2ccc(Cl)c(Cl)c2)C1C` (single isomer, unassigned; diastereoisomer c) [Example 47, 1-(pyrrolidin-1-yl)methyl-2-(3,4-dichlorophenyl)acetyl-3,4-dimethyl-1,2,3,4-tetrahydroisoquinoline hydrochloride diastereoisomer C], in assay [1], the “MOUSE TAIL-FLICK ED50” value is recorded as 8.9 mg/kg.

As to `CSc1cccc2c1CCN(C(=O)Cc1ccc(Cl)c(Cl)c1)C2CN1CCCC1` (centres unmarked) [Example 32, 1-(pyrrolidin-1-yl)methyl-2-(3,4-dichlorophenyl)acetyl-5-methylthio-1,2,3,4-tetrahydroisoquinoline hydrochloride], the 50% effective dose (ED50) in assay [1] is 0.365 mg/kg; in assay [2] it was 0.202 mg/kg. Also, the Ki in assay [3] (setting [4]) came out at 0.442 µM.

`COc1cccc2c1CCN(C(=O)Cc1ccc(C(F)(F)F)cc1)C2CN1CCCC1` (centres unmarked) [Example 33, 1-(pyrrolidin-1-yl)methyl-2-(4-trifluoromethylphenyl)acetyl5-methoxy-1,2,3,4-tetrahydroisoquinoline hydrochloride]: the ED50 in assay [1] was 0.306 mg/kg; in assay [2] it was 0.06 mg/kg. Also, in assay [3] (setting [4]), the Ki was found to be 0.142 µM.

Regarding `COc1ccc2c(c1OC)CCN(C(=O)Cc1ccc(Cl)c(Cl)c1)C2CN1CCCC1` (centres unmarked) [Example 39, 1-(pyrrolidin-1-yl)methyl-2-(3,4-dichlorophenyl)acetyl-5,6-dimethoxy-1,2,3,4-tetrahydroisoquinoline hydrochloride], the ED50 in assay [1] is greater than 1 mg/kg.

For the molecule `CC(=O)Oc1cccc2c1CCN(C(=O)Cc1ccc(Cl)c(Cl)c1)C2CN1CCCC1` (centres unmarked) [Example 52, 1-(pyrrolidin-1-yl)methyl-2-(3,4-dichlorophenyl)acetyl-5-acetoxy-1,2,3,4-tetrahydroisoquinoline hydrochloride], the median effective dose (ED50) is 0.024 mg/kg in assay [1] and 0.005 mg/kg in assay [2].
